Test results: patent publication US20250195393A1, “COSMETIC COMPOSITION COMPRISING SKIN ACTIVE AGENT” (priority 2023, published 2025)
Where two headings read alike, the source gives them in different places.

What was measured:
[1] = Hansen Solubility Parameters; cited from earlier work
[2] = Hansen Solubility Parameters (D, P, H) and distance Ra of solvents (b)
Description: The oil phase of the emulsion includes the hydrophobic polymer of (a) dissolved in one or more solvents capable of solubilizing the hydrophobic polymer. The one or more solvent may include one or more solvents used to generate or solubilize the hydrophobic polymer, e.g., 2,2,4-trimethyl-1,3-pentanediol-monoisobutyrate. The one or more solvents may be a single solvent or a plurality of solvents.
[formula] • wherein • D1 is 16.8 MPa^0.5, • P1 is 4.8 MPa^0.5, and • H1 is 13.0 MPa^0.5.
In a preferred embodiment, the one or more solvents have a dispersion component (D), a polar component (P), a hydrogen bonding component (H), and a distance (Ra) of less than or equal to 9.9 MPa^0.5 per Hansen Solubility Parameters, wherein the distance (Ra) is defined by formula (I):
[formula] • wherein • D1 is 16.4 MPa^0.5, • P1 is 5.0 MPa^0.5, and • H1 is 11.7 MPa^0.5.
The solvent may be an oil. The term “oil” is intended to mean a non-aqueous compound, non-miscible in water, and liquid at 25° C. and atmospheric pressure (760 mmHg; 1.013×10^5 Pa). […] The solvents may include acetone. The solvents may include oleic acid. The solvents may include an oleic acid containing oil (such as a vegetable oil).

Structure (SMILES)	Ra (Allowable Range) [2]	Ra (Preferred Range) [2]	D (dispersion component) [1]	H (hydrogen bonding component) [1]	P (polar component) [1]	Ra (Preferred Range) ([2]; distance per formula (I) with D1 16.4, P1 5.0, H1 11.7, preferred <= 9.9)	Ra (Allowable Range) ([2]; distance per formula (I) with D1 16.8, P1 4.8, H1 13.0, allowable <= 13.4)
CC(C)=O [Acetone]	–	–	15.5 MPa^0.5	7 MPa^0.5	10.4 MPa^0.5	7.38 MPa^0.5	8.61 MPa^0.5
CC(C)O [Isopropyl Alcohol]	7.02 MPa^0.5	5.54 MPa^0.5	15.8 MPa^0.5	6.4 MPa^0.5	6.1 MPa^0.5	–	–
CCO [Ethanol]	7.81 MPa^0.5	8.67 MPa^0.5	15.8 MPa^0.5	19.4 MPa^0.5	8.8 MPa^0.5	–	–
CCCCCCCCCCC(CO)CCCCCCCC (centres unmarked) [Octyldodecanol]	6.33 MPa^0.5	5.17 MPa^0.5	16.1 MPa^0.5	7.4 MPa^0.5	2.2 MPa^0.5	–	–

Second part, led by results:

Ra (Allowable Range) [2]	Ra (Preferred Range) [2]	Structure (SMILES)	D (dispersion component) [1]	H (hydrogen bonding component) [1]	P (polar component) [1]	Ra (Preferred Range) ([2]; distance per formula (I) with D1 16.4, P1 5.0, H1 11.7, preferred <= 9.9)	Ra (Allowable Range) ([2]; distance per formula (I) with D1 16.8, P1 4.8, H1 13.0, allowable <= 13.4)
10.70 MPa^0.5	9.41 MPa^0.5	CCCCCCCCCCCCCC(=O)OC(C)C [Isopropyl Myristate]	15.9 MPa^0.5	2.8 MPa^0.5	2.1 MPa^0.5	–	–
7.27 MPa^0.5	5.98 MPa^0.5	CCCCCCCC/C=C\CCCCCCCC(=O)O [Oleic Acid]	16 MPa^0.5	6.2 MPa^0.5	2.8 MPa^0.5	–	–
2.55 MPa^0.5	3.88 MPa^0.5	OCCOc1ccccc1 [Phenoxyethanol]	–	–	–	–	–
